Publication PMC6162693, “Investigation into the Thermal Response and Pharmacological Activity of Substituted Schiff Bases on α-Amylase and α-Glucosidase” (Antioxidants, 2018)
≈ marks a conversion by molar mass, not a printed value. Like-named read-outs stand apart in the source and are kept apart here.

Key:
Salmonella typhi = experiment: Broth microdilution antimicrobial assay, S. typhi; format: cell-based; conditions: for MBC: Salmonella enterica, TYPHI, read-out: MBC S. typhi
Description: (§1) Exactly 1.5 mg of sodium;10-oxido-7-oxophenoxazin-10-ium-3-olate was dissolved in 100 mL of distilled water, vortexed, filtered, sterilised, and stored at 4 °C for a maximum of 14 days before being applied as a growth indicator. 1000 μM stock solution of Schiff bases (1–9) was prepared in DMSO.
(§2) Fungi (Aspergillus niger, Candida albicans), Gram-positive bacteria (Staphylococcus aureus, Enterococcus faecalis), and Gram-negative bacteria (Salmonella typhi, Escherichia coli).
(§3) Colonies from a 24 h culture agar plate were collected with a loop and transferred to a tube containing lysogeny broth (LB). The various suspensions were incubated at 37 °C and the size adjusted to 1.5 × 10^6 CFU/mL [27].
(§4) The antimicrobial activity of Schiff bases (1–9), was evaluated using 96-well broth microdilution method as described by de Rapper et al. (2013) and Akhalwaya et al. (2018) with slight modifications. Columns 1–11 was filled 50 µL LB, followed by the addition of 50 µL of Schiff base to column 1. Thereafter, 50 µL of Schiff bases from column 1 was transferred by multichannel pipette to columns 2–10, resulting in 50 µL Schiff bases per well. Column 11 contained 100 µL of diluted standardised inoculum, while Column 12 contained 100 µL of LB as a control to monitor sterility. Then, 50 µL of the microorganism suspension was then added to columns 1–10 and the control column 11. The plates were incubated at 37 °C for 24 h, followed by the addition of 30 µL of growth indicator solution and further incubated for 2 h for the observation of colour change. On completion of incubation, the columns with blue indicator colour were reported as the MIC (µM) values. The columns with a concentration higher than the MIC value were plated on nutrient agar to determine the minimum bactericidal and fungicidal concentrations.

[1] = ABTS radical cation decolourisation assay; conditions: absorbance at 734 nm, 30 min; mean ± SD (n = 3)
Description: (§5) The antioxidant activities of Schiff bases (1–9) were determined by DPPH, ABTS^+, H2O2, ferric reducing power assays, and compared with 3,4,5-trihydroxybenzoic acid (10), 5-(1,2-dihydroxyethyl)-3,4-dihydroxyfuran-2(5H)-one (11), and 2-(3,4-dihydroxyphenyl)-3,5,7-trihydroxy-4H-chromen-4-one (12) (as controls).
A mixture of ABTS (960.2 mg) and potassium persulphate (165.6 mg) was dissolved in 250 mL of distilled water to generate the blue-green ABTS^+ solution. The ABTS solution was stored away in the dark at ambient temperature for 24 h to generate sufficient ABTS radical cation (ABTS^+), then the absorbance was adjusted to 0.9547 with distilled water. Precisely 40 µL solution of the compounds were added to 3 mL ABTS^+ solution and incubated at 298 K for 30 min in the dark. Changes in concentration of ABTS^+ were measured at 734 nm on a spectrophotometer. The degree of ABTS^+ decolourisation was a template for evaluating the percentage proton-donating potential (%PDP) of the test compounds [24]; estimated from Equation (3). The IC50 (μM) of the compounds were determined by linear regression analysis, and all analyses were carried out in triplicate. (3) % PDP = 100⌊(Abs. of ABTS ^+ − Abs. of test compound)/(Abs. of ABTS^+)⌋

α-glucosidase = experiment: α-Glucosidase inhibitory activity; format: biochemical; conditions: Means ×10^2 ± SD from at least three experiments
Description: The inhibitory activity of Schiff bases (1-9) against α-glucosidase was assessed by the method previously described by […] et al. […] Then, approximately 0.2 mL of Schiff base solution was mixed with 1.0 mL of 50 mM sodium phosphate buffer (pH 6.9) and 50 μL of α-glucosidase solution (2 U/mL). Thereafter, incubated at 37 °C for 10 min, followed by the addition of exactly 50 μL of 0.7 mM p-nitrophenyl-α-D-glucopyranoside solution in 50 mM sodium phosphate buffer (pH 6.9) and further incubated for 30 min at 37 °C. The reaction was terminated by the addition of 2.0 mL solution of 0.5 M Na2CO3. 0.3 mL aliquot of the above mixture was mixed with 4.7 mL of distilled water and the absorbance measured at 405 nm. […] (6) α - glucosidase inhibition (%) = (Ae - ASB/Ae)100 where Ae is the absorbance of the enzyme solution after incubation and ASB is the absorbance after incubation of Schiff bases solution. The assay was performed in triplicate.

Candida albicans = experiment: Broth microdilution antimicrobial assay, C. albicans; format: cell-based
Description: as §1, §2, §3, §4

α-amylase = experiment: α-Amylase inhibitory activity; format: biochemical; conditions: Means ×10^2 ± SD from at least three experiments
Description: The α-amylase inhibitory activity of Schiff bases (1–9) was evaluated by the method reported by Xiao et al. with slight modifications. Substrate solution is prepared by dissolving 1.0 g of starch in 50 mL of 0.4 M NaOH and heated at 100 °C for 5 min. The substrate solution was adjusted to a neutral pH by the addition of 0.1 M HCl, cooled on crushed ice and made to 100 mL in a standard volumetric flask with distilled water. […] Using a microplate, 40 μL substrate and 20 μL Schiff base solution were mixed, then preincubated at 37 °C for 3 min. Thereafter, 20 μL of 50 μg/mL α-amylase solution was dispensed into each well, and further incubated for 15 min. The reaction was terminated by the addition of 80 μL HCl (0.1 M); followed by 200 μL of 1 mM iodine solution, and the absorbances measured at 650 nm. Inhibitory activity was calculated from Equation (5):(5) α − amylase inhibition (%) = (A2 − A1/A4 − A3)100 where A1 is the absorbance of Schiff base, starch, and α-amylase solution after incubation, A2 is the absorbance of Schiff base and starch solution after incubation, A3 is the absorbance of starch and amylase solution after incubation, and A4 is the absorbance of a starch solution after incubation. Thereafter, the IC50 value was determined from the plot of % inhibition versus concentration.

Staphylococcus aureus = experiment: Broth microdilution antimicrobial assay, S. aureus; format: cell-based; conditions: Staphylococcus aureus, read-out: MBC S. aureus
Description: as §1, §2, §3, §4

H2O2-scavenging activity = conditions: absorbance at 230 nm; mean ± SD (n = 3)
Description: as §5
According to the methods of Ruch et al., the H2O2 scavenging activity of compounds (1–12) was evaluated. To 100 µL aliquot of the test compounds was added 0.4 mL of 50 mM phosphate buffer followed by 0.6 mL of 2 mM H2O2 solution prepared in 50 mM phosphate buffer (pH 6.8). The absorbance of the mixture was measured at 230 nm, thereafter, the %H2O2 scavenging activity (Equation (4)) and IC50 (μM) of the compounds 1–12 was determined. All analyses were carried out in triplicate. (4) % H2O2 − scavenging activity = 100⌊(Abs. of H2O2 − Abs. of test compound)/(Abs. of H2O2)⌋

Escherichia coli = experiment: Broth microdilution antimicrobial assay, E. coli; format: cell-based; conditions: Escherichia coli, read-out: MBC E. coli
Description: as §1, §2, §3, §4

Aspergillus niger = experiment: Broth microdilution antimicrobial assay, A. niger; format: cell-based
Description: as §1, §2, §3, §4

Enterococcus faecalis = experiment: Broth microdilution antimicrobial assay, E. faecalis; format: cell-based; conditions: Enterococcus faecalis, read-out: MBC E. faecalis
Description: as §1, §2, §3, §4

[2] = DPPH radical scavenging activity; conditions: absorbance at 517 nm, 30 min; mean ± SD (n = 3)
Description: as §5
The scavenging activity of compounds (1–12) was evaluated by adding an ethanolic solution of DPPH (300 μL, 0.05 mM) and incubated for 30 min in the dark. After that, changes in the absorbance of the mixture were measured at 517 nm on a UV-Vis spectrophotometer. The percentage radical scavenging activities (%RSA) and half maximal inhibitory concentration (IC50) of the compounds were estimated from Equation (2) and by linear regression analysis, respectively. All studies were carried out in triplicate. (2) % RSA= 100⌊(Abs. of DPPH − Abs. of test compound)/(Abs. of DPPH)⌋

[3] = tested on: Fungi (Aspergillus niger, Candida albicans); experiment: Broth microdilution MIC, antifungal (fungus not specified); format: cell-based; conditions: read-out: MIC (antifungal)
Description: as §1, §2, §3
The antimicrobial activity of Schiff bases (1–9), was evaluated using 96-well broth microdilution method as described by de Rapper et al. (2013) and Akhalwaya et al. (2018) with slight modifications. Columns 1–11 was filled 50 µL LB, followed by the addition of 50 µL of Schiff base to column 1. Thereafter, 50 µL of Schiff bases from column 1 was transferred by multichannel pipette to columns 2–10, resulting in 50 µL Schiff bases per well. Column 11 contained 100 µL of diluted standardised inoculum, while Column 12 contained 100 µL of LB as a control to monitor sterility. Then, 50 µL of the microorganism suspension was then added to columns 1–10 and the control column 11. […]

| Compound | MBC (Salmonella typhi) [µM] | IC50 [1] [µM] | IC50 (α-glucosidase) [µM] | MFC (Candida albicans; read-out: MFC C. albicans) [µM] | IC50 (α-amylase) [µM] | MBC (Staphylococcus aureus) [µM] | IC50 (H2O2-scavenging activity) [µM] | MBC (Escherichia coli) [µM] | MFC (Aspergillus niger; read-out: MFC A. niger) [µM] | MBC (Enterococcus faecalis) [µM] | IC50 [2] [µM] | melting point [°C] | further results |
| --- | --- | --- | --- | --- | --- | --- | --- | --- | --- | --- | --- | --- | --- |
| Oc1cc(N=Cc2ccccc2O)n[nH]1 [Compound 2, 3-(((2-hydroxyphenyl)methylidene)amino)-1H-pyrazol-5-ol] | > 4.31 | 510 ± 5 | 120 ± 51 | > 4.31 | 91 ± 9 | 4.31 (≈ 0.876 µg/mL) | 410 ± 6 | 4.31 (≈ 0.876 µg/mL) | > 4.31 | > 4.31 | 390 ± 5 | 370 |  |
| Oc1cc(N=Cc2ccccc2)n[nH]1 [Compound 3, 3-((phenylmethylidene)amino)-1H-pyrazol-5-ol] | > 5.35 | 450 ± 7 | 560 ± 82 | > 5.35 | 200 ± 74 | > 5.35 | 410 ± 8 | 2.67 (≈ 0.5 µg/mL) | > 5.35 | > 5.35 | 360 ± 5 | 266 | MIC [3]: 0.67 µM (≈ 0.125 µg/mL) |
| O=[N+]([O-])c1ccc(C=Nc2ccc(O)cc2)cc1 [Compound 4, 4-(((4-nitrophenyl)methylidene)amino)phenol] |  | 370 ± 6 | 1390 ± 91 |  | 1380 ± 17 |  | 370 ± 7 | 2.07 (≈ 0.501 µg/mL) |  |  | 290 ± 6 | 202 | MBC (Salmonella typhi; 24 h): > 4.31 µM; MFC (Candida albicans; 24 h, read-out: MFC C. albicans): > 4.31 µM; MBC (Staphylococcus aureus; 24 h, * = no bactericidal effect at the evaluated concentration, n = 3): 4.31 µM (≈ 1.04 µg/mL); MFC (Aspergillus niger; 24 h, read-out: MFC A. niger): > 4.31 µM; MBC (Enterococcus faecalis; 24 h): > 4.31 µM |
| Oc1ccc(N=Cc2ccccc2O)cc1 [Compound 5, 4-(2-hydroxybenzylideneamino)phenol] | > 4.69 | 110 ± 5 | 1380 ± 1250 | > 4.69 |  | > 4.69 | 320 ± 6 |  | > 4.69 |  | 260 ± 5 |  | MBC (Escherichia coli; n = 3): 4.69 µM (≈ 1 µg/mL); MBC (Enterococcus faecalis; * = no bactericidal effect at the evaluated concentration, n = 3): 4.69 µM (≈ 1 µg/mL) |
| Oc1ccc(N=Cc2ccccc2)cc1 [Compound 6, 4-(benzylideneamino)phenol] | > 5.07 | 260 ± 6 | 1420 ± 1730 | > 5.07 | 1410 ± 17 | > 5.07 | 380 ± 5 |  | > 5.07 | > 5.07 | 380 ± 2 | 302 | MBC (Escherichia coli; n = 3): 2.54 µM (≈ 0.501 µg/mL) |
| O=S(=O)(O)c1cc(O)c(N=Cc2ccccc2O)c2ccccc12 [Compound 8, 4-(2-hydroxybenzylideneamino)-3-hydroxynaphthalene-1-sulphonic acid] | > 2.92 | 140 ± 5 | 500 ± 82 | 1.46 (≈ 0.501 µg/mL) | 420 ± 34 | > 2.92 | 240 ± 17 | 1.46 (≈ 0.501 µg/mL) | 1.46 (≈ 0.501 µg/mL) | > 2.92 | 210 ± 5 | 296 | antibacterial activity (growth inhibition), S. typhi (Salmonella typhi): inhibited only the growth of S. typhi |
| O=S(=O)(O)c1cc(O)c(N=Cc2ccccc2)c2ccccc12 [Compound 9, 4-(benzylideneamino)-3-hydroxynaphthalene-1-sulphonic acid] | > 3.06 | 50 ± 4 | 660 ± 97 |  | 561 ± 42 | > 3.06 | 190 ± 11 | 3.06 (≈ 1 µg/mL) |  | > 3.06 | 220 ± 6 | 246 | MFC (Candida albicans; * = no fungicidal effect at the evaluated concentration, n = 3, read-out: MFC C. albicans): 1.53 µM (≈ 0.501 µg/mL); MFC (Aspergillus niger; * = no fungicidal effect at the evaluated concentration, n = 3, read-out: MFC A. niger): 1.53 µM (≈ 0.501 µg/mL) |
| O=C(O)c1cc(O)c(O)c(O)c1 [Compound 10, 3,4,5-trihydroxybenzoic acid, reference compound] |  | 580 ± 7 |  |  |  |  | 460 ± 11 |  |  |  | 420 ± 3 |  |  |
| O=C1OC(C(O)CO)C(O)=C1O (stereo not drawn) [Compound 11, 5-(1,2-dihydroxyethyl)-3,4-dihydroxyfuran-2(5H)-one, reference compound] |  | 530 ± 6 |  |  |  |  | 440 ± 7 |  |  |  | 350 ± 5 |  |  |
| O=c1c(O)c(-c2ccc(O)c(O)c2)oc2cc(O)cc(O)c12 [Compound 12, 2-(3,4-dihydroxyphenyl)-3,5,7-trihydroxy-4H-chromen-4-one, reference compound] |  | 270 ± 8 |  |  |  |  | 270 ± 10 |  |  |  | 240 ± 3 |  |  |
